Activity calls are given as the source filed them. The calls are words filed in the database; no cut-off is given here.
Columns and labels:
[1] = Cell cycle arrest in human DU145 cells assessed as accumulation at sub G1 phase at 2 uM after 48 hrs by propidium iodide staining based flow cytometry (reference value: 8.20 %); assay type: functional; details: DU-145
[2] = Up regulation of Cip1/p21 expression in human DU145 cells at 1 to 2 uM after 48 hrs by Western blot analysis; assay type: functional, cell-based; details: DU-145
[3] = Cell cycle arrest in human DU145 cells assessed as accumulation at G2/M phase at 2 uM after 48 hrs by propidium iodide staining based flow cytometry (reference value: 5.96 %); assay type: functional; details: DU-145
[4] = test system: DU-145; assay: Induction of apoptosis in human DU145 cells at assessed as early apoptotic cells 1 uM after 48 hrs by annexin V-FITC/PI staining based flow cytometry (reference value: 2.13 %); assay type: functional
[5] = test system: DU-145; assay: Induction of apoptosis in human DU145 cells assessed as necrotic cells at 2 uM after 48 hrs by annexin V-FITC/PI staining based flow cytometry (reference value: 0.67 %); assay type: functional
[6] = test system: DU-145; assay: Induction of apoptosis in human DU145 cells assessed as viable cells at 2 uM after 48 hrs by annexin V-FITC/PI staining based flow cytometry (reference value: 95.57 %); assay type: functional; details: DU-145, 48 h, read-out: Activity
[7] = Cell cycle arrest in human DU145 cells assessed as accumulation at G0/G1 phase at 1 uM after 48 hrs by propidium iodide staining based flow cytometry (reference value: 81.67 %); assay type: functional; details: DU-145
[8] = test system: DU-145; assay: Induction of apoptosis in human DU145 cells assessed as early apoptotic cells at 2 uM after 48 hrs by annexin V-FITC/PI staining based flow cytometry (reference value: 2.13 %); assay type: functional
[9] = Cell cycle arrest in human DU145 cells assessed as accumulation at G0/G1 phase at 2 uM after 48 hrs by propidium iodide staining based flow cytometry (reference value: 81.67 %); assay type: functional; details: DU-145
[10] = test system: DU-145; assay: Induction of apoptosis in human DU145 cells assessed as late apoptotic cells at 1 uM after 48 hrs by annexin V-FITC/PI staining based flow cytometry (reference value: 1.63 %); assay type: functional
[11] = Cell cycle arrest in human DU145 cells assessed as accumulation at S phase at 2 uM after 48 hrs by propidium iodide staining based flow cytometry (reference value: 1.59 %); assay type: functional; details: DU-145
[12] = test system: A549; assay: Cytotoxicity against human A549 cells assessed as cell growth inhibition after 48 hrs by MTT assay; assay type: functional, cell-based; details: A549, 48 h
[13] = test system: DU-145; assay: Induction of apoptosis in human DU145 cells assessed as necrotic cells at 1 uM after 48 hrs by annexin V-FITC/PI staining based flow cytometry (reference value: 0.67 %); assay type: functional
[14] = test system: DU-145; assay: Change in mitochondrial membrane potential in human DU145 cells at 2 uM after 48 hrs by JC-1 staining based flow cytometry (reference value: 95.6%); assay type: functional
[15] = test system: DU-145; assay: Induction of apoptosis in human DU145 cells assessed as viable cells at 1 uM after 48 hrs by annexin V-FITC/PI staining based flow cytometry (reference value: 95.57 %); assay type: functional; details: DU-145, 48 h, read-out: Activity
[16] = Cytotoxicity against human DU145 cells assessed as cell growth inhibition after 48 hrs by MTT assay; assay type: functional, cell-based; details: DU-145, 48 h
[17] = test system: DU-145; assay: Induction of apoptosis in human DU145 cells assessed as late apoptotic cells at 2 uM after 48 hrs by annexin V-FITC/PI staining based flow cytometry (reference value: 1.63 %); assay type: functional
[18] = test system: MDA-MB-231; assay: Cytotoxicity against human MDA-MB-231 cells assessed as cell growth inhibition after 48 hrs by MTT assay; assay type: functional, cell-based; details: MDA-MB-231, 48 h
[19] = Up regulation of Kip1/p27 expression in human DU145 cells at 1 to 2 uM after 48 hrs by Western blot analysis; assay type: functional, cell-based; details: DU-145
[20] = Cell cycle arrest in human DU145 cells assessed as accumulation at G2/M phase at 1 uM after 48 hrs by propidium iodide staining based flow cytometry (reference value: 5.96 %); assay type: functional; details: DU-145
[21] = test system: DU-145; assay: Change in mitochondrial membrane potential in human DU145 cells at 1 uM after 48 hrs by JC-1 staining based flow cytometry (reference value: 95.6%); assay type: functional
[22] = test system: HT-29; assay: Cytotoxicity against human HT-29 cells assessed as cell growth inhibition after 48 hrs by MTT assay; assay type: functional, cell-based; details: HT-29, 48 h
[23] = Cell cycle arrest in human DU145 cells assessed as accumulation at S phase at 1 uM after 48 hrs by propidium iodide staining based flow cytometry (reference value: 1.59 %); assay type: functional; details: DU-145
[24] = Cell cycle arrest in human DU145 cells assessed as accumulation at sub G1 phase at 1 uM after 48 hrs by propidium iodide staining based flow cytometry (reference value: 8.20 %); assay type: functional; details: DU-145
[25] = Down regulation of CDK4 expression in human DU145 cells at 1 to 2 uM after 48 hrs by Western blot analysis; assay type: functional, cell-based; details: DU-145
[26] = test system: HeLa; assay: Cytotoxicity against human HeLa cells assessed as cell growth inhibition after 48 hrs by MTT assay; assay type: functional, cell-based

O=C1N(Cc2ccc3c(c2)OCO3)c2ccc(Cl)cc2C12Nc1ccccc1-n1cccc12 (stereo not given)
Activity [1]: 29.1%
Activity [2]: Active
Activity [3]: 4.46%
Activity [4]: 21.95%
Activity [5]: 1.63%
viability at 2 µM [6]: 55%
Activity [7]: 85.2%
Activity [8]: 27.36%
Activity [9]: 58.8%
Activity [10]: 15.42%
Activity [11]: 2.94%
IC50 [12]: 2.11 µM
Activity [13]: 2%
Activity [14]: 72.2%
viability at 1 µM [15]: 60.6%
IC50 [16]: 1.16 µM
Activity [17]: 16.03%
IC50 [18]: 2.34 µM
Activity [19]: Active
Activity [20]: 4.2%
Activity [21]: 87.7%
IC50 [22]: 1.63 µM
Activity [23]: 1.21%
Activity [24]: 6.98%
Activity [25]: Active
IC50 [26]: 2.45 µM

O=C1N(Cc2ccccc2)c2ccc(Cl)cc2C12Nc1ccccc1-n1cccc12 (stereo not given)
IC50 [12]: 4.79 µM
IC50 [16]: 4.71 µM
IC50 [18]: 26.6 µM
IC50 [22]: 19 µM
IC50 [26]: 4.86 µM

O=C1N(Cc2ccccc2)c2ccccc2C12Nc1ccccc1-n1cccc12 (stereo not given)
IC50 [12]: 17 µM
IC50 [16]: 13.2 µM
IC50 [18]: 26.2 µM
IC50 [22]: 17.4 µM
IC50 [26]: 20 µM

O=C1Nc2c(F)cccc2C12Nc1ccccc1-n1cccc12 (stereo not given)
IC50 [12]: 11.3 µM
IC50 [16]: 12.7 µM
IC50 [18]: 15.9 µM
IC50 [22]: 12.7 µM
IC50 [26]: 12.4 µM

Cc1ccc2c(c1)C1(Nc3ccccc3-n3cccc31)C(=O)N2 (stereo not given)
IC50 [12]: 13.5 µM
IC50 [16]: 12.5 µM
IC50 [18]: 22.1 µM
IC50 [22]: 14.5 µM
IC50 [26]: 11.2 µM

O=C1Nc2ccc(I)cc2C12Nc1ccccc1-n1cccc12 (stereo not given)
IC50 [12]: 22.4 µM
IC50 [16]: 15.7 µM
IC50 [18]: 27.1 µM
IC50 [22]: 19 µM
IC50 [26]: 16.7 µM

COc1cccc2c1C(=O)c1c(O)c3c(c(O)c1C2=O)C[C@@](O)(C(=O)CO)C[C@@H]3O[C@H]1C[C@H](N)[C@H](O)[C@H](C)O1 [DOXORUBICIN]
IC50 [12]: 1.06 µM
IC50 [16]: 1.82 µM
IC50 [18]: 1.67 µM
IC50 [22]: 1.16 µM

O=C1Nc2ccc(Br)cc2C12Nc1ccccc1-n1cccc12 (stereo not given)
IC50 [12]: 4.9 µM
IC50 [16]: 3.98 µM
IC50 [18]: 29.7 µM
IC50 [22]: 17 µM
IC50 [26]: 16.4 µM

From ChEMBL document CHEMBL3763077, “Discovery of pyrrolospirooxindole derivatives as novel cyclin dependent kinase 4 (CDK4) inhibitors by catalyst-free, green approach” (Eur J Med Chem, 2016)
